These results are taken from paper PMC6934184, “Selective DNA-PKcs inhibition extends the therapeutic index of localized radiotherapy and chemotherapy” (The Journal of Clinical Investigation, 2019).

Molecules are shown by their SMILES.

The test concerns the target T1, NLK (Homo sapiens, UniProt Q9UBE8).
T1 construct: purchased Thermo Fisher Scientific (Life Technologies) SelectScreen
Description: SelectScreen LanthaScreen. In kind it is binding. The conditions noted are these: read-out: % displacement. Put shortly: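 Percent values come from Thermo SelectScreen profiling of NU5455, combining activity and binding assays. CSF1R was run in Z'LYTE format at Km app ATP, and CAMK1 in Adapta format with ATP listed at 10.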

T1 sequence (Q9UBE8 whole entry): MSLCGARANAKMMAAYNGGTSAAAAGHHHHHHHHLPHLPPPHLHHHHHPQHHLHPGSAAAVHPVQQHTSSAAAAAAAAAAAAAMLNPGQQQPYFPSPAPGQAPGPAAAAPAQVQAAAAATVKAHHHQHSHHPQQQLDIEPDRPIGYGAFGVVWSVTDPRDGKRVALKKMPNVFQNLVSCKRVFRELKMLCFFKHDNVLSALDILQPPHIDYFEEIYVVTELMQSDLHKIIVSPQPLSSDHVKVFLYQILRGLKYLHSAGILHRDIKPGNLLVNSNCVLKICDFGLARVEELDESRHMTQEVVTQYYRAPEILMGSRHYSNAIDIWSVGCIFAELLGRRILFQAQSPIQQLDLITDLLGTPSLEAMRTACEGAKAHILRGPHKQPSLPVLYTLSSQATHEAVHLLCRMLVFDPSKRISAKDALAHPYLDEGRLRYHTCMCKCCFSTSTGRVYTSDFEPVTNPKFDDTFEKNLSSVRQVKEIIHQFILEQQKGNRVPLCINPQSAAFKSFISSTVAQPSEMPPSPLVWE

As to `CN(C(=O)CN1CCOCC1)c1ccc2sc3c(-c4cccc5c(=O)cc(N6CC7CCC(C6)O7)oc45)cccc3c2c1` [NU5455], the inhibition at 1 µM was found to be 4.7%.
